pIC50, pKd: −log10 of the molar value. Entries after “also recorded” stand apart in the source; their conditions may differ. Where a name gives a salt, the structure may show the parent alone.

A word on the pIC50: it is the negative decadic logarithm of the IC50, by convention in mol/L.

In test [1] the target is KRas proteins (Wild type, G12v, G13d, G12a, G12c, G12d, Q61L, and Q61R). The test can be described thus: Dose dependent Bodipy FL-GTP binding assay, KRas multiplex. The conditions noted are these: separate KRas proteins, 1 hour at 4° C.; read-out: binding affinities. The arrangement: species or system Human. The text has this:
Bead Coupling: 4 μm diameter, glutathione-beads (GSH-beads), distinguished by ten different intensities of red fluorescence (varying by several orders of magnitude of emission at 665±10 nm with excitation at 635 nm) were obtained by special order from Duke Scientific Corp. Each polystyrene bead set is supplied at 1.4×10^8 beads/ml with approximately 1.2×10^6 glutathione sites per bead (determined by using GST—green fluorescent protein^42). […] The amount of each bead type used for coupling and the final volume of the coupling reaction was determined by the experimental protocol. […]
Dose Dependent Bodipy FL-GTP Binding Assays: For dose dependence binding assays, GTPase-coupled bead sets were incubated on a rotator for 1 hour at 4° C. with varying concentrations of Bodipy FL-GTP (0.3-300 nM). […] Non-specific binding of Bodipy-FL GTP was assessed by incubating coupled beads with excess GTP prior to the addition of the Bodipy analogue. […]
Assay Plate Assembly: Plate assays were performed in 384-well microtiter plates (Greiner Bio-one, #784101); plates were assembled using a BioTek MultiFlo™ Microplate Dispenser. For dose-dependent Bodipy FL-GTP binding assays, total and non-specific binding were assessed by pre-incubation (30 min/4° C.) in the absence or presence of 30 μM GTP, respectively. […]

Test [2] deals with H-Ras, H-RasG12V, Rab and Rho subfamilies. The conditions noted are these: earlier studies; cited from earlier work.
In a further test the test system is GTPases. The conditions noted are these: cited from earlier work.
Test [3] deals with KRas G12v, HRas G12V, Kras Q61R, Rac1 L61, CDC42. Put plainly: Equilibrium kinetics assays, real-time Bodipy FL-GTP association and dissociation. It is filed as binding, Human. The conditions noted are these: for displacement of pre-bound Bodipy FL-GTP: pre-binding at 4° C. or RT in the presence of Mg2+. As for the experimental part: Equilibrium Kinetics Assays: GTPase-coupled beads were prepared as described above and were kept on ice until used. Reactions were performed at room temperature in amber micro-centrifuge tubes in an appropriate volume of assay buffer. Bead mixtures were initially incubated on a rotator with Guanabenz acetate (100 μM) or DMSO for 30 min at 4° C. prior to the addition of 1 nM Bodipy FL-GTP. Real-time binding kinetics was recorded using an Accuri C6 flow cytometer. Binding association was followed for 15 minutes at which time excess GTP was added. Disassociation kinetics was followed for an additional 25 minutes. Data was analyzed using GraphPad Prism software. The association time course was fitted to a two phase exponential association and the dissociation time course was fitted to a two phase decay (exponential).
To determine mechanism of action, we evaluated binding and dissociation of Bodipy FL-GTP in real-time kinetic experiments in the presence of Guanabenz acetate or GTP. Tests included pre-binding of Bodipy-FL GTP at 4′ C. or RT in the presence of Mg^2+.
It was then elected to perform association rate analysis, using the order of addition of reagents used in screening, where guanabenz was added first, incubated at 4° C., then Bodipy FL-GTP was added at room temperature.

The test system of the next test is Q61 KRas mutants. The test can be described thus: Multiplex flow cytometry Bodipy FL-GTP binding, compound dose response, Q61 mutants. The arrangement: species or system Human. The conditions noted are these: 10 nM Bodipy FL-GTP. On the procedure:
Bead Coupling: 4 μm diameter, glutathione-beads (GSH-beads), distinguished by ten different intensities of red fluorescence (varying by several orders of magnitude of emission at 665±10 nm with excitation at 635 nm) were obtained by special order from Duke Scientific Corp. Each polystyrene bead set is supplied at 1.4×10^8 beads/ml with approximately 1.2×10^6 glutathione sites per bead (determined by using GST—green fluorescent protein^42). Prior to incubation with individual GST-GTPase fusion proteins, an appropriate volume of each bead slurry was incubated for 30 minutes at room temperature in assay buffer (20 mM HEPES pH 7.5, 125 μM […], 1 mM MgCl2, 0.5 mM EDTA pH 8.0, 0.01% NP-40) supplemented with 1 mM dithiothreitol and 0.1% BSA. Following this initial incubation, passivated beads were collected by centrifugation and resuspended in assay buffer with individual GST-GTPase fusion proteins at a final concentration of […]. Overnight coupling reactions were carried out at 4° C. with rotation. The amount of each bead type used for coupling and the final volume of the coupling reaction was determined by the experimental protocol. Typically, bead sets are used at a final concentration of 200 bead/μL. To remove unbound GST-GTPase, bead sets were washed twice by centrifugation with ice-cold assay buffer. Individually coated beads were pooled together and kept cold in an appropriate volume before use in binding assays. Bead-bound proteins are sufficiently stable to study secondary interactions between GTPase-GST chimera's and Bodipy-FL GTP^54. Note that an extra GSH-bead set is included that is not protein coupled. This set serves as a ‘scavenger’ for proteins that might dissociate during the binding assay.
For assay screening plates, compound libraries were first dispensed into columns 3-22 using a Labcyte 555 Echo Acoustic Dispenser (San Jose, Calif.) for a final concentration of 10 μM. An equal volume (10 nL) of DMSO was added to the vehicle control wells (column 2). Following the addition of library compounds, 2 μL of assay buffer was added and the plates were mixed before addition of 5 μL of the protein-coupled bead mixtures; 10 μL of assay buffer was added to empty wells in columns 1 and 24. Empty wells serve as wash wells between compound wells and control wells. Plates were mixed and incubated on a rotator for 30 minutes at 4° C. before the addition of 3 μL of Bodipy FL-GTP resulting in a final concentration 10 nM Bodipy FL-GTP. Plates were mixed and incubated for 1 hour at 4° C. Negative controls, containing bead mixtures, Bodipy FL-GTP, and 30 μM unlabeled GTP were assayed separately. Dose response plates were assembled similarly.
Data Acquisition: Assay plates were sampled using the HyperCyt™ high throughput flow cytometry platform (Intellicyt; Albuquerque, N. Mex.). During sampling, the probe moves from well to well and samples 1-2 μL from each well with 0.4 sec transit time in the air before sampling the next well. The resulting sample stream consisting of 384 bubble-separated samples is delivered to an Accuri C6 flow cytometer (BD Biosciences; San Jose, Calif.). Bodipy FL-GTP fluorescence is excited at 488 nm and detected with a 533/30 bandpass filter. […] Gating based on red fluorescence emission distinguishes the separately coated beads. […]
For orientation: A flow cytometer gives signals particle by particle.

Test [4] has as its system Ras family GTPases (KRas WT, G12v, G13d, G12a, G12c, G12d, Q61H, Q61L, Q61R; HRas WT, HRas G12v; CDC42 WT, CDC42 L61; Rac1 WT, Rac1 L61). The test can be described thus: Multiplex flow cytometry Bodipy FL-GTP binding, compound screen and dose response. The conditions noted are these: for class of modulation of Bodipy-GTP binding to Ras family GTPases (pan activator, pan inhibitor, selective inhibitor, mixed activity modulator): multiplex, 10 nM Bodipy FL-GTP, compound 100-0.015 μM, normalized to DMSO; for activity or affinity relative to other compounds / selectivity among GTPases (RAS vs non-RAS, individual proteins): multiplex dose response.
Experimental: Following this initial incubation, passivated beads were collected by centrifugation and resuspended in assay buffer with individual GST-GTPase fusion proteins at a final concentration of 1 M. Overnight coupling reactions were carried out at 4° C. with rotation. The amount of each bead type used for coupling and the final volume of the coupling reaction was determined by the experimental protocol. Typically, bead sets are used at a final concentration of 200 bead/μL. To remove unbound GST-GTPase, bead sets were washed twice by centrifugation with ice-cold assay buffer. Individually coated beads were pooled together and kept cold in an appropriate volume before use in binding assays. Bead-bound proteins are sufficiently stable to study secondary interactions between GTPase-GST chimera's and Bodipy-FL GTP^54. Note that an extra GSH-bead set is included that is not protein coupled. This set serves as a ‘scavenger’ for proteins that might dissociate during the binding assay.
Data Acquisition: Assay plates were sampled using the HyperCyt™ high throughput flow cytometry platform (Intellicyt; Albuquerque, N. Mex.). During sampling, the probe moves from well to well and samples 1-2 μL from each well with 0.4 sec transit time in the air before sampling the next well. […] Plate data are acquired as time-resolved files that are parsed by software-based well identification algorithms, segregating individual well data that is merged with compound library files to determine compound activity in each well. Gating based on red fluorescence emission distinguishes the separately coated beads. Plate performance was validated using the Z-prime calculation^58.
Dose response data points were fitted by Prism® software (GraphPad Software Inc., San Diego, Calif.) using nonlinear least-squares regression in a sigmoidal dose-response model with variable slope, also known as the 4-parameter logistic equation.
Each well of an assay plate contained 10 sets of beads with variable red fluorescent intensities. Nine protein-coupled bead sets, carrying the different GST-KRas proteins were combined with an uncoupled GSH-bead that serves as a scavenger for GST-proteins that might dissociate during the assay. Bead mixtures were dispensed into individual wells of a 384-well assay plate and incubated with fluorescent GTP in the presence of library compounds. The final concentration of reagents in each assay well was 10 μM compound, 10 nM Bodipy FL-GTP, and 0.1% DMSO. Each bead set was added at 200 beads/μL. Each plate was analyzed both in forward (starting with A1) and reverse direction to account for fluorescent compounds that can carryover during sampling and effect subsequent sample values. […] Excess GTP containing wells were evaluated separately and were used, along with the DMSO control wells, to calculate a Z′ value for each bead set. […] A secondary single point evaluation was performed on these identified primary hits.

In another test the test system is GTPases (Rac1 and Cdc42). Particulars: in cells, earlier studies; read-out: IC50 values for inhibitory activity against the GTPases; cited from earlier work.

As to “Guanosine 5′-Triphosphate, BODIPY™ FL 2′-(or-3′)-O-(N-(2-Aminoethyl) Urethane), Trisodium Salt [Bodipy FL-GTP]”, the pKd in test [1] is 7.30 to 9.00.
Take `CC1(C)Cc2c(sc(NC(=S)NC(=O)c3ccccc3)c2C(=O)O)CO1` [CID1067700]: the “inhibitory activity on guanine nucleotide binding” value in test [2] was “inhibitory activity against H-Ras and H-RasG12V; also recorded: broad spectrum inhibitor of the Rab and Rho subfamilies; also recorded: competitive inhibitor of nucleotide binding”.
As for `CSc1ccc(/C=C2/C(C)=C(CC(=O)O)c3cc(F)ccc32)cc1` [sulindac sulfide], the reported activity result in the test on GTPases is given as “inhibitors”.
Take `O=C(c1ccccc1)c1ccc2n1CCC2C(=O)O` (stereo not drawn) [ketorolac]: the reported activity result in the test on GTPases is listed as “inhibitors”.
As for `Nc1nc2c(ncn2[C@@H]2O[C@H](COP(=O)(O)OP(=O)(O)OP(=O)(O)O)[C@@H](O)[C@H]2O)c(=O)[nH]1` [GTP], the “displacement of pre-bound Bodipy FL-GTP” value in test [3] is listed as “could be displaced by GTP”.
On to `CN1CCN(CCCN2c3ccccc3Sc3ccc(C(F)(F)F)cc32)CC1` [Trifluperazine Hydrochloride], for which the “effect on GTP binding to Q61 KRas mutants” value (from here on “effect on GTP binding”) in the test on Q61 KRas mutants is recorded as “not to Q61 KRas mutants”. Moreover, the “class of modulation of Bodipy-GTP binding to Ras family GTPases (pan activator, pan inhibitor, selective inhibitor, mixed activity modulator)” value is on record as “selective inhibitors” in test [4] (hydrochloride) and “Selective inhibitors; also recorded: weak inhibition” in test [4] (listed as trifluoperazine, Hydrochloride).
For the compound `O=C(c1ccccc1)c1ccc2n1CC[C@H]2C(=O)O` [R-ketorolac], the pIC50 with GTPases (Rac1 and Cdc42) was 6.00 to 6.30.
For the compound `O=C1C(Cl)=C(NCCN2CCOCC2)C(=O)c2ncccc21` [NSC 663284], in the test with Q61 KRas mutants, the “effect on GTP binding” value is “not to Q61 KRas mutants”. Moreover, the “class of modulation of Bodipy-GTP binding to Ras family GTPases (pan activator, pan inhibitor, selective inhibitor, mixed activity modulator)” value in test [4] (listed as NSC663284) was “Selective inhibitors”.
For the compound `CN(C)CC/C=C1/c2ccccc2Sc2ccc(Cl)cc21` [Chlorprothixene hydrochloride], the “effect on GTP binding” value in the test on Q61 KRas mutants is on record as “not to Q61 KRas mutants”. Further, the “activity or affinity relative to other compounds” value in test [4] was “most active”. In test [4], the “selectivity among GTPases (RAS vs non-RAS, individual proteins)” value was “selective for KRas WT, the KRas G12 mutants, and the HRas proteins”. In addition, the “class of modulation of Bodipy-GTP binding to Ras family GTPases (pan activator, pan inhibitor, selective inhibitor, mixed activity modulator)” value in test [4] (hydrochloride) is listed as “selective inhibitors”; in test [4] (listed as chlorprothixene hydrochloride, hydrochloride) it was “Selective inhibitors”; in test [4] (listed as chlorproxithene, hydrochloride) it was “selective inhibition”.
Regarding `N=C(N)N/N=C/c1c(Cl)cccc1Cl` [Guanabenz acetate], the “effect on GTP binding” value with Q61 KRas mutants was “not to Q61 KRas mutants”. Moreover, in test [3] (guanabenz added first at 4° C., then Bodipy FL-GTP at room temperature, KRas G12v and HRas G12V vs Kras Q61R, Rac1 L61 and CDC42), the “association of Bodipy FL-GTP” value is reported as “Dramatic differences in association”. In test [3], the “displacement of pre-bound Bodipy FL-GTP” value was “not able to displace Bodipy FL-GTP”. Also, in test [3] (stable GTPases in the absence of Mg), the “dissociation of Bodipy FL-GTP” value is given as “did not induce dissociation”. Also, in test [4], the “selectivity among GTPases (RAS vs non-RAS, individual proteins)” value was “selective for KRas WT, the KRas G12 mutants, and the HRas proteins”; the “class of modulation of Bodipy-GTP binding to Ras family GTPases (pan activator, pan inhibitor, selective inhibitor, mixed activity modulator)” value is “selective inhibitors”. Besides, in test [4] (listed as guanabenz acetate), the “activity or affinity relative to other compounds” value was “most active; also recorded: comparable activity to a recently described KRas inhibitor with low μM affinity”; the “selectivity among GTPases (RAS vs non-RAS, individual proteins)” value was “does not appear to limit selectivity to G12D”; the “class of modulation of Bodipy-GTP binding to Ras family GTPases (pan activator, pan inhibitor, selective inhibitor, mixed activity modulator)” value is recorded as “Selective inhibitors”.
Consider `CC(C)(C)C(=O)Nc1ccc2c(c1)C(=O)C(=O)c1ccccc1-2` [SF1670], for which the “effect on GTP binding” value in the test with Q61 KRas mutants is reported as “activates Q61 KRas mutants”. Also, the “selectivity among GTPases (RAS vs non-RAS, individual proteins)” value in test [4] is on record as “RAS activator, non-RAS inhibitor”. Moreover, the “class of modulation of Bodipy-GTP binding to Ras family GTPases (pan activator, pan inhibitor, selective inhibitor, mixed activity modulator)” value in test [4] is “modulators with mixed activity”; in test [4] (listed as SF1760), “mixed activity”.

The values above are taken from patent publication US20210041441A1, “DISCOVERY OF NOVEL MOLECULES AND REPURPOSED DRUGS FOR RAS FAMILY GTPases” (UNM Rainforest Innovations, priority 2018, published 2021).
